In patent US20120329803A1, “Dihydropteridinones, method for production and use thereof” (BOEHRINGER INGELHEIM INTERNATIONAL GMBH, priority 2010, published 2012):
Several values for one entry are separate records, joined by “and”; a condition that tells them apart may be missing. Equal entries are not always repeated. Where two headings read alike, the source gives them in different places.

Experiments:
hERG channel = target: T1, hERG channel (Homo sapiens, UniProt Q12809); experiment: hERG channel assay (whole-cell patch clamp); format: cell-based; conditions: HEK 293 cells stably transfected with hERG; 0.3, 1, 3, 10 μM tested; read-out: residual currents value (half-inhibitory concentration from fit to residual hERG current)
T1 construct: expressed in transfected cells; host or cells: HEK293 cells, stably transfected; cDNA from M. Sanguinetti, University of Utah
Description: HEK (human embryonic kidney) 293 cells are stably transfected with hERG cDNA (obtained courtesy of M. Sanguinetti, University of Utah). Cells determined for use in patch clamp experiments are plated on glass coverslips in 24 well plates and are cultivated without antibiotic during this time.
Coverslips are placed at the bottom of a 2 mL perfusion chamber mounted on the stage of an inverted microscope. Cells are superfused with a bath solution containing (mM): NaCl (137), KCl (4.0), MgCl2 (1.0), CaCl2 (1.8), Glucose (10), HEPES (10), pH 7.4 with NaOH. […]
Membrane currents are recorded using an EPC-10 or equivalent patch clamp amplifier (HEKA Electronics, Lambrecht, FRG) using the whole-cell configuration of the patch-clamp technique. hERG-mediated inactivating tail currents are elicited using a brief hyperpolarising pulse after channel inactivation at a depolarised potential.
Four concentrations of the compound of formula (12B) according to the present invention (0.3, 1, 3, 10 μM) are applied on different cells. A steady state level of baseline current is measured prior to the application of the test article. […]
Peak current amplitudes are measured for each hyperpolarising step. […] Residual currents (I/Io) are calculated for each cell as the fraction of actual average peak current and average baseline peak current. Current inhibition is expressed as (1−I/I0)*100%. […]

human Plk1 enzyme = target: T2, human Plk1 enzyme (Homo sapiens, UniProt P53350); experiment: Plk1 low enzyme inhibition (kinase) assay; format: biochemical; conditions: casein substrate, 7.5 μM ATP
T2 construct: The full-length coding region of the human Plk1 enzyme (residues 1-603); made in house; host or cells: Sf21 insect cells, baculovirus (pAcG2T vector, BD Biosciences)
Description: (§1) Kinase assays are performed using full-length recombinant Plk1 enzyme produced in a baculovirus expression system and casein from bovine milk as a substrate. Results represent the means of 2 independent experiments with each data point measured in duplicate. NCI-H460 human non-small cell lung cancer and HCT 116 human colon carcinoma cell lines are used in Alamar Blue™ based proliferation assays. Results represent the means of 3 dose titrations for each cell line with each data point measured in duplicate. Two independent kinase assay experiments are carried out to determine the inhibitory activity of compound (12B) on the Plk1 enzyme. 7 concentrations of compound (12B) are used and each concentration is tested in duplicate measurements.
The compound is dissolved in DMSO at a concentration of 10 mM. For the proliferation assay and the first kinase assay the compound is freshly dissolved. For the second kinase assay a 10 mM stock solution in DMSO is used.
A baculoviral expression system is used to generate full-length recombinant Plk1 enzyme for the assay. Casein from bovine milk is used as a substrate. All other reagents are from the highest grade of purity commercially available. […]

[1] = system: HCT 116 human colorectal carcinoma cells; experiment: Alamar Blue cell proliferation assay, HCT 116; format: cell-based; conditions: HCT 116 cells, 72 h
Description: as §1
(§2) For each cell line a proliferation assay experiment is carried out to determine the EC50 values in triplicate. 12 concentrations of each compound are used and each concentration is tested in duplicate measurements.
(§3) HCT 116 human colorectal carcinoma (ATCC CCL 247) and NCI-H460 human lung carcinoma (ATCC HTB-177) cells are used in an Alamar Blue™ based proliferation assay.
(§4) The Alamar Blue™ assay is designed to quantitatively measure the proliferation of cells by incorporating a fluorometric/colorimetric growth indicator that is based on the detection of metabolic activity in viable cells.
(§5) HCT 116 and NCI-H460 cells are grown in IMDM medium containing 10% FCS and 2 mM L-glutamine. They are maintained at 37° C. and 5% CO2 in a humidified atmosphere with a split ratio of 1:5. For proliferation assays in the 96-well format, penicillin-streptomycin is added to the medium at a final concentration of 100 u/ml penicillin and 100 μg/ml streptomycin.
(§6) On day one of the experiment, 1000 cells in 180 μl medium are seeded into each well of a sterile 96-well flat-bottom plate. The plates are kept in the incubator overnight. The compounds are dissolved in DMSO at a concentration of 1000 μM. On day two of the experiment, 12 serial dilutions (1:3) of the compounds are prepared in medium containing 0.1% DMSO. 20 μl of the dilutions are added to each well to yield a final volume of 200 μl per well. As a control, medium containing 0.1% DMSO is added to the designated wells. The cells are then incubated for 72 h. After this incubation period, 20 μl of Alamar Blue™ is added to each well. After 6 h of incubation, the plates are measured in a fluorescence spectrophotometer (excitation 531 nm, emission 595 nm, slits 15, integrate time 0.1). All data points are measured in duplicates.
(§7) The mean value from the duplicates is taken and the background is subtracted. The “0.1% DMSO value” (the mean value obtained from wells containing cells plus 0.1% DMSO containing medium) is taken as “100% control”. […]

[2] = system: NCI-H460 human lung carcinoma cells; experiment: Alamar Blue cell proliferation assay, NCI-H460; format: cell-based; conditions: 72 h
Description: as §1, §2, §3, §4, §5, §6, §7

[3] = measurement 1, read-out: Measurement 1 EC50
[4] = measurement 2, read-out: Measurement 2 EC50
[5] = measurement 3, read-out: Measurement 3 EC50

T2 sequence (P53350 whole entry, the tested form may be a part): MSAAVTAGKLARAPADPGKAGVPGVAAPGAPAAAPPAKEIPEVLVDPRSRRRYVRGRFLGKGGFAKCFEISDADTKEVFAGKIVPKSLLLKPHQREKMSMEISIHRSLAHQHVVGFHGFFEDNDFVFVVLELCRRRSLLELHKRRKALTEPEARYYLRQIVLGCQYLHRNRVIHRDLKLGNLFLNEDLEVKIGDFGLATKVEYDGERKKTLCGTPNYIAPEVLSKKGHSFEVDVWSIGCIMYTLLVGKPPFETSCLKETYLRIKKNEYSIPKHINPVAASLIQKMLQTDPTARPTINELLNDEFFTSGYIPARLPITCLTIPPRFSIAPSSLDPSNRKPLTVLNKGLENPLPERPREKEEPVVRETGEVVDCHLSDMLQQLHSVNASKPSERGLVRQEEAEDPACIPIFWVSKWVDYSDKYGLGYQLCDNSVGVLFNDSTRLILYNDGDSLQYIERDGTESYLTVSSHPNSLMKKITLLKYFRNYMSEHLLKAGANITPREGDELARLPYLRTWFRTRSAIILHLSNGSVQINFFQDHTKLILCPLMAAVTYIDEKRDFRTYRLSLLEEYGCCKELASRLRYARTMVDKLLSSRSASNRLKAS
T1 sequence (Q12809 whole entry): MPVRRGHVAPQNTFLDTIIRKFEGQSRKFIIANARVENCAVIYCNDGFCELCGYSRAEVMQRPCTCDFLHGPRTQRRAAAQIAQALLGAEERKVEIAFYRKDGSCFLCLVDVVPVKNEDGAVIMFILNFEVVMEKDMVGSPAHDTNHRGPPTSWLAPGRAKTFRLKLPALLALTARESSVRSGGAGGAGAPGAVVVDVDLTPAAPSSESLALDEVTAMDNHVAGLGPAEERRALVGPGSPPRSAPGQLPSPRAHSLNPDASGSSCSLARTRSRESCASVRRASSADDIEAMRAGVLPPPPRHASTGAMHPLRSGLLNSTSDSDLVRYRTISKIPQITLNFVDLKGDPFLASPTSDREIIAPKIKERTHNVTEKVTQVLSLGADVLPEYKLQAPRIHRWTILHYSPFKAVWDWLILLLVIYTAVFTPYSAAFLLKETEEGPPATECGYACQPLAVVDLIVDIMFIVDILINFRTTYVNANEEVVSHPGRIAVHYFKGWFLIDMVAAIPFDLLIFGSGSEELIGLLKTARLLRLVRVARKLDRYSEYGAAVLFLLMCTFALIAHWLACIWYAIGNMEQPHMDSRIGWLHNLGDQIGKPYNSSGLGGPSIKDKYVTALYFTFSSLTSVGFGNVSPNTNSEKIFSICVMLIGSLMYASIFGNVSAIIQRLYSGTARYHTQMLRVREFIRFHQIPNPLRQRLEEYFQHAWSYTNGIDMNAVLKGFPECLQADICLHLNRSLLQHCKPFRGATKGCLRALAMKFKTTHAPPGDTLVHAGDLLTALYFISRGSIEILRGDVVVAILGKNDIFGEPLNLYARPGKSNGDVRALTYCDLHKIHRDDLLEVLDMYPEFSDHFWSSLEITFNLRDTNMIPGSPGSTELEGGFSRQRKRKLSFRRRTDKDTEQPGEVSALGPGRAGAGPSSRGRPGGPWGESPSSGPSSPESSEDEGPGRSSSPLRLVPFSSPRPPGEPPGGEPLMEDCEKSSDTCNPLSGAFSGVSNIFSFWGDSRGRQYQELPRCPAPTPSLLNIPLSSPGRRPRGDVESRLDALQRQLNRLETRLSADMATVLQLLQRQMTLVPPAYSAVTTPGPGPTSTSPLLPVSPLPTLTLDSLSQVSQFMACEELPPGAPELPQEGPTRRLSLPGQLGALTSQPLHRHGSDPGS

IC50 (human Plk1 enzyme; mean of 2 independent experiments, read-out: Mean IC50): 8 nM | IC50 (human Plk1 enzyme; single experiments (experiment number 1, 2), read-out: IC50): 8.1 nM and 7.9 nM | EC50 ([1]; mean of 3, read-out: Mean EC50): 273 nM | EC50 [1, 3]: 311 nM | EC50 [1, 4]: 335 nM | EC50 [1, 5]: 174 nM | EC50 ([2]; mean of 3, read-out: Mean EC50): 430 nM | EC50 [2, 3]: 517 nM | EC50 [2, 4]: 471 nM | EC50 [2, 5]: 302 nM
SMILES: CCC1(O)C(=O)N(C)c2cnc(Nc3ccc(C(=O)N[C@H]4CC[C@H](N5CCN(CC6CC6)CC5)CC4)cc3OC)nc2N1C(C)C (some centres unmarked) [compound 12B]
IC50 (hERG channel): 9500 nM
